Measured values reported in patent US6677431B2, “Design, preparation, and properties of antibacterial β-peptides” (The Trustees of the University of Pennsylvania, priority 1999, dated 2004).
Where two headings read alike, the source gives them in different places.

Experiments:
[1] = Peptide-induced leakage of liposomal contents (calcein release)
Protocol: The leakage of liposome contents to the external media was monitored by the release of calcein encapsulated in vesicles. The vesicle was prepared by reverse-phase evaporation in 10 mM sodium phosphate buffer, pH 7, followed by single extrusion through one 0.2 μm pore size polycarbonate filter. The non trapped calcein was removed by eluting through a size exclusion Sephadex G-25 column, with 90 mM sodium chloride, 10 mM sodium phosphate, pH 7. The leaking kinetics was monitored by follow the increase of calcein fluorescence intensity at 520 nm (excitation at 490 nm) due to release of self-quenching. The experiment was carried out on a Hitachi F-2500 Fluoresence spectrophotometer, with a slit width of […]. The initial rate was calculated from the linear part of the %leakage vs. time curve.
The mechanism of how the antibacterial peptides work is still on debate. However, it is generally believed they kill the cell by disturbing cell membranes. The experiment of peptide-induced leakage of liposomal contents is a direct way to monitor this process. Large unilammilar vesicles (LUV) of SOPS/SOPC (1:9) were used in the binding study. The leakage of encapsulated calcein was detected by its fluorescence at 515 nm. The fraction of bound lipid at different peptide concentration was calculated and overlaid in FIG. 4 as well. The lysis abilities of the two peptides are similar at low peptide concentration, and become quite different with increasing amount of peptide. […] With increase of peptide concentration, the leakage percentage increases quickly. For peptide 2, the leakage percentage jumps to 100% within the range between 0.05 μM and 0.14 μM where the corresponding fractions of lipid bound are about 10% 40%, respectively. […] The percentage of leakage increases to about 80% when the peptide concentration reaches 0.5 μM. The lysis ability stays at a plateau until the peptide concentration is pushed up to 2 μM, when about 60% of lipid molecules are bound to peptide molecules. […] The difference between the two peptides is even more obvious when looking at the leakage rate right after the addition of peptide to the vesicle solution, as shown in FIG. 3. The initial leakage rate for peptide 2 increases sharply when the peptide concentration increases from 0.14 μM to 0.19 μM. […] For peptide 1, the leakage initial rate increases in a continuous fashion, and 100% leakage is not complete until 300 s with 5.18 μM peptide.

[2] = test system: osmY-lux fusion; assay: Stress-induced response assay, induction of osmY-lux fusion; format: cell-based; conditions: for induction of osmY-lux: Group II peptides; for osmY gene fusion response: Table 4, stress sensed osmotic shock
Protocol: Stress-induced response and growth inhibition assays were carried out on samples of four of the β-peptide and compared to known polycationic peptides.
Polymyxin B was tested both rich, LB, medium and defined, M9, medium. The other natural peptides were tested in LB medium.
The β-peptides were tested in M9 medium. * In LB medium (data from Oh et al. Biochem. Biophys. Acta. 2000,1463: 43-54)
However, similar to the magainins, no induction of the micF-lux fusion was observed. Also, the minimum inhibitory concentrations (MIC's) were determined to be higher than those reported in the published manuscript.
Samples of these β-peptides 1 and 2 were evaluated in the stress-induced response assays.
(§1) The biolumenescence data result from test carried out according to U.S. Pat. No. 5,683,868, Highly Sensitive Method For Detecting Environmental Insults, issued Nov. 4, 1997 to LaRossa et al., the entire contents of the disclosure of are hereby incorporated by reference, The tests described in this patent permit antibacterial properties of peptides or any other materials to be assessed. […] Along these lines, FIG. 5 illustrates a relationship between relative light units and minutes of exposure of bacteria to the various materials in the legend. P×B represents polymyxin, a known antibacterial material. In the graph, a decrease in RULs corresponds to a decrease in bacteria. […]

[3] = test system: recA-lux bioluminescence; assay: Inhibition of recA-lux bioluminescence in M9 media; format: cell-based; conditions: inhibition of recA-lux bioluminescence in M9 media (Van Dyk lab)
Protocol: (§2) ∇in M9 medium (data from Hamuro et al., ref. 5) # In M9 medium.+Hemolysis experiments were performed by incubating a 0.25% suspension of human RBc's in 10 mM Tris buffer containing […] at pH 7.0 with varying amounts of peptide. The hemolytic dose required to lyse 50% of the RBC's is reported as the HD50.
as §1

[4] = test system: K91 E. coli; format: cell-based
Protocol: (§3) The biological activities of these peptides were measured using human erythrocytes and E. coli as models for mammalian and bacterial cells, respectively. Hemolysis was monitored in 10 mM Tris, 150 mM NaCl, pH 7.0, while the bacterial assay was conducted in minimal media M9 (Table 1); both of these solutions are sufficiently transparent to allow CD and ultracentrifugation measurements (supplementary material). Under the assay conditions, the peptides gave CD spectra similar to those in Tris buffer, with the exception of H-(β^3-HLeu-β^3-HLys-β^3-HLeu)n-OH, n=5 and 6.
Antibacterial assay was performed by incubation of K 91 E. coli and peptide of different concentrations in minimal media, at pH 7.4. The peptide solution (50 μL) and K 91 E. coli culture (20 μL, grown in minimal media for 24 hr-36 hr) were mixed with 1 mL minimal media. […] The peptide dose required for 50% suppress of bacterial growth was obtained from the smooth fitted OD600 vs. log[peptide] curve.
(§4) The activity and selectivity of peptide 1 and peptide 2 were examined by antibacterial assay and hemolysis experiments. E. Coli and human erythrotytes (RBC) were used as models for bacterial cell and mammalian cell, respectively. The peptide concentration required for 50% bacterial growth suppression (IC50), and peptide concentration required for 50% RBC lysis (HD50) are listed in Table 3. […] The antibacterial activities of peptide 1 and peptide 2 are about the same except peptide 2 has slightly lower IC50. Similar trend has been observed in the previous study, that longer peptide tends to have higher activity. However, the difference in IC50 is much smaller for this series of peptide than the previously studied ones. Antibacterial peptide with good selectivity is usually represented by its low hemolysis ability. […] The HD50 is 670 μM for peptide 1 and 240 μM for peptide 2, which gives a selectivity of 111 for peptide 1 and 60 for peptide 2.

[5] = Hemolysis assay, 50% lysis of RBC's; format: cell-based, human; conditions: human, 0.25% suspension of human erythrocytes (RBCs)
Protocol: as §3, §2
(§5) Hemolysis experiments were carried out by incubating 0.25% suspension of human erythrocytes (RBC's) with peptides of different concentrations in 150 mM sodium choloride, 10 mM Tris buffer, pH 7.0. The sample was prepared by combining 400 μL of the RBC suspension and […] of the peptide solution. After incubated the sample at 37— C. for 1 hour, the sample was centrifuged at 14,000 rpm for 5 min, and the OD414 of the supernatant was measured. Mellitin (50 μM) was used to get 100% hemolysis. The hemolytic IC50 was obtained by plotting hemolysis percentage vis. peptide concentration, and the concentration required for 50% hemolysis was determined from the smooth curve-fitted graph.
as §4

[6] = test system: human erythrocytes (RBC's); assay: Hemolysis assay, 50% lysis of RBC's; format: cell-based
Protocol: as §3, §2, §5, §4

[7] = K91 E. coli, minimal media, pH 7.4 (DeGrado lab), read-out: IC50 *

CC(C)[C@@H](CC(N)=O)NC(=O)C[C@H](CCCCN)NC(=O)C[C@H](C)NC(=O)C[C@@H](NC(=O)C[C@H](CCCCN)NC(=O)C[C@H](C)NC(=O)C[C@@H](NC(=O)C[C@H](CCCCN)NC(=O)C[C@H](C)NC(=O)C[C@@H](NC(=O)C[C@H](CCCCN)NC(=O)C[C@H](C)N)C(C)C)C(C)C)C(C)C [Peptide 1]
time to 100% leakage ([1]; 5.18 μM peptide): 300 s
lysis of the vesicle ([1]; at 285 seconds, 5 μM peptide): Complete lysis
percentage of leakage ([1]; at 285 seconds, peptide 0.5 μM): about 80%
induction of osmY-lux [2]: induction
osmY gene fusion response [2]: yes
IC50 [3]: 10 µM
IC50 [4, 7]: 6 µM
IC50 ([4]; Table 5, read-out: IC50): 6 µM
HC50 at 1 h ([5]; pH 7): 670 µM
HC50 [6]: 670 µM
HD50 [6]: 670 µM

CC(C)[C@@H](CC(N)=O)NC(=O)C[C@H](CCCCN)NC(=O)C[C@H](C)NC(=O)C[C@@H](NC(=O)C[C@H](CCCCN)NC(=O)C[C@H](C)NC(=O)C[C@@H](NC(=O)C[C@H](CCCCN)NC(=O)C[C@H](C)NC(=O)C[C@@H](NC(=O)C[C@H](CCCCN)NC(=O)C[C@H](C)NC(=O)C[C@@H](NC(=O)C[C@H](CCCCN)NC(=O)C[C@H](C)N)C(C)C)C(C)C)C(C)C)C(C)C [Peptide 2]
percentage of leakage ([1]; at 285 seconds, peptide between 0.05 μM and 0.14 μM): 100%
time to complete lysis of the vesicle ([1]; peptide concentration higher than 0.5 μM): ≤ 20 s
induction of osmY-lux [2]: induction
osmY gene fusion response [2]: yes
IC50 [3]: 3 µM
IC50 [4, 7]: 4 µM
IC50 ([4]; Table 5, read-out: IC50): 4 µM
HC50 at 1 h [5]: 240 µM
HC50 [6]: 240 µM
HD50 [6]: 240 µM
